Laboratory results as given in ChEMBL document CHEMBL6134768, “Design, synthesis, and structure-activity relationship studies of 6H-benzo[b]indeno[1,2-d]thiophen-6-one derivatives as DYRK1A/CLK1/CLK4/haspin inhibitors” (RSC Med Chem, 2025).
Each block holds one molecule with its values, some of them ahead of it.

Columns and labels:
[1] = Metabolic stability in rat liver microsomes assessed as half life; type: ADME, Microsome
[2] = rat, microsomes
[3] = target: Dual specificity tyrosine-phosphorylation-regulated kinase 1B (Homo sapiens) (UniProt Q9Y463); assay: Inhibition of human GST-tagged DYRK1B extracted from Escherichia coli assessed as residual activity using gamma-32 ATP and KKISGRLSPIMTEQ as substrate at 1 uM by radiometric kinase assay relative to control
U-87 MG = assay: cells; settings: Homo sapiens, 72 h
cells = settings: Homo sapiens, U373 MG, 72 h
[4] = target: Serine/threonine-protein kinase pim-1 (Homo sapiens) (UniProt P11309); assay: Inhibition of PIM1 (unknown origin) at 0.35 uM by Z-LYTE kinase activity assay relative to control
[5] = target: T1, Serine/threonine-protein kinase 17A (Homo sapiens) (UniProt Q9UEE5); assay: Inhibition of STK17A (DRAK1) (unknown origin) at 0.35 uM by LanthaScreen kinase binding assay relative to control
T1 sequence (whole entry): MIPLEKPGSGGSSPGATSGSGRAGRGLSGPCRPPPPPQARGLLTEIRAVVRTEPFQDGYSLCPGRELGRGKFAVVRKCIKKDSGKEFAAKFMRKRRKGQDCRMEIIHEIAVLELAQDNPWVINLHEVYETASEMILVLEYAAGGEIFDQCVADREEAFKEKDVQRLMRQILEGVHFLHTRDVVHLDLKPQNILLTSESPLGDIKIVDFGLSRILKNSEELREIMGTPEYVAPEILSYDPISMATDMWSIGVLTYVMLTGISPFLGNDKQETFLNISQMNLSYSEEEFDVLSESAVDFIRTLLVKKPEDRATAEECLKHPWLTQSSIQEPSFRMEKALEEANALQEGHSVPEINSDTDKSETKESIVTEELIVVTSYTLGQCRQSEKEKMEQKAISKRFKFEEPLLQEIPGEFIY

[6] = target: Dual specificity tyrosine-phosphorylation-regulated kinase 1B (Homo sapiens) (UniProt Q9Y463); assay: Inhibition of DYRK1B (unknown origin) at 0.35 uM by Z-LYTE kinase activity assay relative to control
[7] = target: T2, Serine/threonine-protein kinase haspin (Homo sapiens, UniProt Q8TF76); assay: Inhibition of GSG2 (haspin) (unknown origin) by radiometric assay relative to control
T2 sequence (Q8TF76 whole entry): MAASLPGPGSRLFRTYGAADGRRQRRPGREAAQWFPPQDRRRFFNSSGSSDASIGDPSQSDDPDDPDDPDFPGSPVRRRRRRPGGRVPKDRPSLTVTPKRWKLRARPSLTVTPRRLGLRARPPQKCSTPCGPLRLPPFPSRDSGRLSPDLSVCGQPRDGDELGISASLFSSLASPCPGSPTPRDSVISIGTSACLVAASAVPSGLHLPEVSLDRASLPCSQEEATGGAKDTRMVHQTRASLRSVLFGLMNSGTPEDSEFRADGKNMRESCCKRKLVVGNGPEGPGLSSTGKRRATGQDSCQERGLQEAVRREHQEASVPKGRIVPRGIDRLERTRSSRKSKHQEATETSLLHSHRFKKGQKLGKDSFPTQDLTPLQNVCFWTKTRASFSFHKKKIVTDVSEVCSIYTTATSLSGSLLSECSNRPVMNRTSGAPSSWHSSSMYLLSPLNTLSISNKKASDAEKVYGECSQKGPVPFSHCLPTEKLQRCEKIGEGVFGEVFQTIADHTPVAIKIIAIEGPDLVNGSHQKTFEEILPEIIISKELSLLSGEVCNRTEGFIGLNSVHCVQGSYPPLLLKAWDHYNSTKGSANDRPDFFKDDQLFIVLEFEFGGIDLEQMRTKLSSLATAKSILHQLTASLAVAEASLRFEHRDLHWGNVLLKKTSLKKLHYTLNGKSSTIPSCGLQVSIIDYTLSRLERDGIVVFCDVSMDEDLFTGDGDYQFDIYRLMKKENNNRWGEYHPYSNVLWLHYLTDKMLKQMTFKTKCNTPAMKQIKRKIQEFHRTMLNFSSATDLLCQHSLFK

[8] = target: T3, Dual specificity protein kinase CLK4 (Homo sapiens, UniProt Q9HAZ1); assay: Inhibition of CLK4 (unknown origin) at 0.35 uM by radiometric assay relative to control
Target sequence in this assay (Q9HAZ1 whole entry, looked up): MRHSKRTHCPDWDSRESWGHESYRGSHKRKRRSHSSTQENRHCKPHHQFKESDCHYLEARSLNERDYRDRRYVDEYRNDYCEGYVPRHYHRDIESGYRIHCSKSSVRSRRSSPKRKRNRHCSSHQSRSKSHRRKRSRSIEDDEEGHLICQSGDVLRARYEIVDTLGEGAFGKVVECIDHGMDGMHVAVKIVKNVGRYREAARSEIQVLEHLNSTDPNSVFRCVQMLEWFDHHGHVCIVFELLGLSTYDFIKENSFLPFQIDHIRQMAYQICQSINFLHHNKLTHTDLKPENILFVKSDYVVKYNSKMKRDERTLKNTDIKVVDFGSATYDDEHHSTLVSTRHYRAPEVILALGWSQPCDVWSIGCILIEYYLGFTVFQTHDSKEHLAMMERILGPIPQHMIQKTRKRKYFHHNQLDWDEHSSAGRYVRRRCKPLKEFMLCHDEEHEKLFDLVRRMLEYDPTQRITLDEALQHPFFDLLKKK

[9] = target: SRSF protein kinase 2 (Homo sapiens) (UniProt P78362); assay: Inhibition of SRPK2 (unknown origin) at 0.35 uM by Z-LYTE kinase activity assay relative to control
[10] = target: Dual specificity protein kinase CLK1 (Homo sapiens) (UniProt P49759); assay: Inhibition of CLK1 (unknown origin) at 0.35 uM by Z-LYTE kinase activity assay relative to control
[11] = target: Dual specificity protein kinase CLK1 (Homo sapiens) (UniProt P49759); assay: Inhibition of CLK1 (unknown origin) at 0.35 uM by radiometric assay relative to control
[12] = target: T3, Dual specificity protein kinase CLK4; assay: Inhibition of CLK4 (unknown origin) by radiometric assay relative to control
Target sequence in this assay (Q9HAZ1 whole entry): as the sequence (Q9HAZ1 whole entry, looked up) above

[13] = target: T4, Dual specificity tyrosine-phosphorylation-regulated kinase 2 (Homo sapiens) (UniProt Q92630); assay: Inhibition of DYRK2 (unknown origin) at 0.35 uM by LanthaScreen kinase binding assay relative to control
T4 sequence (whole entry): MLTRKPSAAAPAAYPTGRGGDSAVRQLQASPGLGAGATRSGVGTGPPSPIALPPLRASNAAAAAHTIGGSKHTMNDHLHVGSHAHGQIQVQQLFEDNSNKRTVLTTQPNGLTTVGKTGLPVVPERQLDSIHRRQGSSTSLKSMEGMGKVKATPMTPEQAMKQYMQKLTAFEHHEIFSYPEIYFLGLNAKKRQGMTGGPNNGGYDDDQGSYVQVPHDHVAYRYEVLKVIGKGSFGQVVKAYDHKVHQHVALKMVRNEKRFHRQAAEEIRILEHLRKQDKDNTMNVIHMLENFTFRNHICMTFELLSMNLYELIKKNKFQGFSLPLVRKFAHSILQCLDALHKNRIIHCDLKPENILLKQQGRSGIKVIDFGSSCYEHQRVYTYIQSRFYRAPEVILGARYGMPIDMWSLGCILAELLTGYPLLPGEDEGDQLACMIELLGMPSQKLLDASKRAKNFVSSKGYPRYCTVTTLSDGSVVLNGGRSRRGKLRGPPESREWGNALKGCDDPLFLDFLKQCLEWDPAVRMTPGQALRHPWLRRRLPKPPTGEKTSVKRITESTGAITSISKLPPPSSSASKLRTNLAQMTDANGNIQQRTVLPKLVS

[14] = target: SRSF protein kinase 1 (Homo sapiens) (UniProt Q96SB4); assay: Inhibition of SRPK1 (unknown origin) at 0.35 uM by Z-LYTE kinase activity assay relative to control
[15] = target: T3, Dual specificity protein kinase CLK4; assay: Inhibition of CLK4 (unknown origin) by LanthaScreen kinase binding assay relative to control
Target sequence in this assay (Q9HAZ1 whole entry): as the sequence (Q9HAZ1 whole entry, looked up) above

[16] = target: T2, Serine/threonine-protein kinase haspin; assay: Inhibition of GSG2 (haspin) (unknown origin) by Adapta kinase activity assay relative to control
[17] = target: Myosin light chain kinase 2, skeletal/cardiac muscle (Homo sapiens) (UniProt Q9H1R3); assay: Inhibition of MLCK2 (unknown origin) at 0.35 uM by LanthaScreen kinase binding assay relative to control
[18] = target: Dual specificity protein kinase CLK3 (Homo sapiens) (UniProt P49761); assay: Inhibition of CLK3 (unknown origin) at 0.35 uM by Z-LYTE kinase activity assay relative to control
[19] = target: T5, Serine/threonine-protein kinase haspin (Homo sapiens) (UniProt Q8TF76); assay: Inhibition of GSG2 (haspin) (unknown origin) at 0.35 uM by Adapta kinase activity assay relative to control
T5 sequence (whole entry): T2 sequence (Q8TF76 whole entry)

[20] = target: Dual specificity tyrosine-phosphorylation-regulated kinase 1B (Homo sapiens) (UniProt Q9Y463); assay: Inhibition of DYRK1B (unknown origin) at 0.35 uM by radiometric assay relative to control
[21] = target: Cyclin-dependent kinase 5/CDK5 activator 1 (Homo sapiens) (UniProt Q00535+Q15078); assay: Inhibition of CDK5/p25 (unknown origin) at 0.35 uM by Z-LYTE kinase activity assay relative to control; type: protein-complex assay
[22] = target: Epidermal growth factor receptor (Homo sapiens) (UniProt P00533); assay: Inhibition of EGFR (ErbB1) (unknown origin) at 0.35 uM by Z-LYTE kinase activity assay relative to control
[23] = target: BDNF/NT-3 growth factors receptor (Homo sapiens) (UniProt Q16620); assay: Inhibition of NTRK2 (TRKB) (unknown origin) at 0.35 uM by Z-LYTE kinase activity assay relative to control
[24] = target: T3, Dual specificity protein kinase CLK4; assay: Inhibition of CLK4 (unknown origin) at 0.35 uM by LanthaScreen kinase binding assay relative to control
Target sequence in this assay (Q9HAZ1 whole entry, looked up): as the sequence (Q9HAZ1 whole entry, looked up) above

[25] = target: Serine/threonine-protein kinase 33 (Homo sapiens) (UniProt Q9BYT3); assay: Inhibition of STK33 (unknown origin) at 0.35 uM by LanthaScreen kinase binding assay relative to control
[26] = target: T5, Serine/threonine-protein kinase haspin (Homo sapiens); assay: Inhibition of GSG2 (haspin) (unknown origin) at 0.35 uM by radiometric assay relative to control
[27] = target: Homeodomain-interacting protein kinase 1 (Homo sapiens) (UniProt Q86Z02); assay: Inhibition of HIPK1 (Myak) (unknown origin) at 0.35 uM by Z-LYTE kinase activity assay relative to control
[28] = target: T6, Dual specificity tyrosine-phosphorylation-regulated kinase 3 (Homo sapiens) (UniProt O43781); assay: Inhibition of DYRK3 (unknown origin) at 0.35 uM by Z-LYTE kinase activity assay relative to control
T6 sequence (whole entry): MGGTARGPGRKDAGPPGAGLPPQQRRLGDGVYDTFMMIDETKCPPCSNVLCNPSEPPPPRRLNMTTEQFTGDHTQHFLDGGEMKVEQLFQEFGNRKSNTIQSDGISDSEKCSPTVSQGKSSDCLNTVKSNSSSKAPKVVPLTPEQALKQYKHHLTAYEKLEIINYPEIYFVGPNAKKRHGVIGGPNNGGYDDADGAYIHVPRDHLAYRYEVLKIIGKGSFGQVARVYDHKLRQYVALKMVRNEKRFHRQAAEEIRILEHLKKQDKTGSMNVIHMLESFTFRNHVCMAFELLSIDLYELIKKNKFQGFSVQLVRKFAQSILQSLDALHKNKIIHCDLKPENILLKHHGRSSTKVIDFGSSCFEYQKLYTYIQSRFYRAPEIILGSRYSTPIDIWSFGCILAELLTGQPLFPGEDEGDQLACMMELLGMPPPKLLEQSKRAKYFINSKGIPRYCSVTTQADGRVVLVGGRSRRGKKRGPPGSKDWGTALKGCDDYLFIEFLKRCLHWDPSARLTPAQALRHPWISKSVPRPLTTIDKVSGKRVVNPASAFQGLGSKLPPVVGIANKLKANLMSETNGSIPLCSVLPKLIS

[29] = Metabolic stability in rat liver microsomes assessed as degradation; type: ADME, Microsome; settings: read-out: Drug degradation

Chain of Dual specificity tyrosine-phosphorylation-regulated kinase 1B (Homo sapiens) (Q9Y463 whole entry, looked up): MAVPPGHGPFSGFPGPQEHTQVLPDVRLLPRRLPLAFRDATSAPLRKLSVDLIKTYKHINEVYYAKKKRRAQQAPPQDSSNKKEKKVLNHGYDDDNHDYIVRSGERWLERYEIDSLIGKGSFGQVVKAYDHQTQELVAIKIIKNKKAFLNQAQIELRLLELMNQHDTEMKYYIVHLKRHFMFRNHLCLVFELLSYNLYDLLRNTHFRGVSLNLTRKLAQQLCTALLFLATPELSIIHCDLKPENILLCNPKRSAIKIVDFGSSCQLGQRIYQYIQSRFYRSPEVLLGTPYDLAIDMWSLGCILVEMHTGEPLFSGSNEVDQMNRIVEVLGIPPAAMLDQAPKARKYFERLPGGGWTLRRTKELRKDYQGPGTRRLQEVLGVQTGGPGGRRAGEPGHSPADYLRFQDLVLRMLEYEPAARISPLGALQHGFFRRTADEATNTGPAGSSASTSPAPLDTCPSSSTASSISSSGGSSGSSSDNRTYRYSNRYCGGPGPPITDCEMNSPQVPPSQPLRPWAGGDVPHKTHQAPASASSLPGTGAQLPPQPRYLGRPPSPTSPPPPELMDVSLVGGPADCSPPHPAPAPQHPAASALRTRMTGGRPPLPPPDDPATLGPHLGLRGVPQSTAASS
Chain of Dual specificity protein kinase CLK1 (Homo sapiens) (P49759 whole entry, looked up): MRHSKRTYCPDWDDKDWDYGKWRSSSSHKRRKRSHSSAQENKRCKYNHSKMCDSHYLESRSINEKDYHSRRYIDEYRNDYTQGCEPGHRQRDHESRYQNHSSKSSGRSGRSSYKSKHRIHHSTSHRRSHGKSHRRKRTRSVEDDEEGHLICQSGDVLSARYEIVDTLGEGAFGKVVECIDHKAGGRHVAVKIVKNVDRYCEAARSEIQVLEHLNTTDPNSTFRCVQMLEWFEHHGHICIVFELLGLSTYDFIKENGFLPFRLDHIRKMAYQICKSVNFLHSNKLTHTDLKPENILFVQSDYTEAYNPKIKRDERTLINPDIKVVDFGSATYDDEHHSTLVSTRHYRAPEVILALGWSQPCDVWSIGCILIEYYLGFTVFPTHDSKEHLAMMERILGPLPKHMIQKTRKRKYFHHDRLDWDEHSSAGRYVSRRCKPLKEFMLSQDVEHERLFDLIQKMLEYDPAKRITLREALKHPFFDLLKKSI
Chain of Cyclin-dependent kinase 5/CDK5 activator 1 (Homo sapiens) (Q00535 whole entry): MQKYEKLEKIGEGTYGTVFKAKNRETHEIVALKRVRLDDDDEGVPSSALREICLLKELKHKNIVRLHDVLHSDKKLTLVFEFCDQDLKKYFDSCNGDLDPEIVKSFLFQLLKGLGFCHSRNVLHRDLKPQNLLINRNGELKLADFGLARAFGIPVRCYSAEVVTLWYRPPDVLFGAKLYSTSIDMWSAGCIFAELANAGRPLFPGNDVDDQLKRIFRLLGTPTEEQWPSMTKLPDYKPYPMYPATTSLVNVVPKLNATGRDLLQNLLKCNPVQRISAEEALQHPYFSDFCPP
Chain of Cyclin-dependent kinase 5/CDK5 activator 1 (Homo sapiens) (Q15078 99-307 partner limits assumed): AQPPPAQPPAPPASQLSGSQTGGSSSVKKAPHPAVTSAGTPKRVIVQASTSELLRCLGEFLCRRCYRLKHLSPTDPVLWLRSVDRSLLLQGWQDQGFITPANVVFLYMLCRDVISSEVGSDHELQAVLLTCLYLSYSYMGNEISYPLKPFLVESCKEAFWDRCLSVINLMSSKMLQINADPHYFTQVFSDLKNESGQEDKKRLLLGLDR
Chain of Serine/threonine-protein kinase 33 (Homo sapiens) (Q9BYT3 whole entry, looked up): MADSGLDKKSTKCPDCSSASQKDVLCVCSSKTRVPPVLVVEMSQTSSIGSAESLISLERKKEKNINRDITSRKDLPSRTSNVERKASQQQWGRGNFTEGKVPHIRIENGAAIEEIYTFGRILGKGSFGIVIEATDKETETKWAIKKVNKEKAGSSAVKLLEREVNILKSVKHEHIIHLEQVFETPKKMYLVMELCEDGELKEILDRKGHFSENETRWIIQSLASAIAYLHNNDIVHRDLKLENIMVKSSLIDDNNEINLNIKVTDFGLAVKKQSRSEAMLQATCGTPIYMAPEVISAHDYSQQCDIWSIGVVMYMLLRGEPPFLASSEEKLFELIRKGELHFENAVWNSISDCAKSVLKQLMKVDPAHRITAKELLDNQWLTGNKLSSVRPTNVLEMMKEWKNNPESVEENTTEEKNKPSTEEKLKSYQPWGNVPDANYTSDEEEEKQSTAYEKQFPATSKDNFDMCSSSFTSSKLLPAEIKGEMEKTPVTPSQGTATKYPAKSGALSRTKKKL
Chain of SRSF protein kinase 1 (Homo sapiens) (Q96SB4 whole entry): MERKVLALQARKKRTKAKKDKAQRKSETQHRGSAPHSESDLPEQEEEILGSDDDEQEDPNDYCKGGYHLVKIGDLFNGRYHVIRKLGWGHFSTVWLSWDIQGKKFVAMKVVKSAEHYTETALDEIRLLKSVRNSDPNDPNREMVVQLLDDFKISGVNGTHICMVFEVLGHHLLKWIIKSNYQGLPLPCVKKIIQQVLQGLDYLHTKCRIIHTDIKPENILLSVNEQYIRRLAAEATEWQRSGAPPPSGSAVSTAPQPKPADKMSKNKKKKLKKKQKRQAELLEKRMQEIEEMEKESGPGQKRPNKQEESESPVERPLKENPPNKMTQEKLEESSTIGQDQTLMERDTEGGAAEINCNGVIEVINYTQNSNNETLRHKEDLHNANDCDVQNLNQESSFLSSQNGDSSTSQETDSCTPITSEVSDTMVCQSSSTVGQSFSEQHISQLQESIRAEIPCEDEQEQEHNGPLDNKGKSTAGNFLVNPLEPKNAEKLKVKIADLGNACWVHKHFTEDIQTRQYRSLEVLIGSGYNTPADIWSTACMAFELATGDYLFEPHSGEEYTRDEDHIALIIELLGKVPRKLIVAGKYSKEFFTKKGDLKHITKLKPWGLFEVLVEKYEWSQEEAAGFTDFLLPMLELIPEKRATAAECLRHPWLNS
Chain of SRSF protein kinase 2 (Homo sapiens) (P78362 whole entry, looked up): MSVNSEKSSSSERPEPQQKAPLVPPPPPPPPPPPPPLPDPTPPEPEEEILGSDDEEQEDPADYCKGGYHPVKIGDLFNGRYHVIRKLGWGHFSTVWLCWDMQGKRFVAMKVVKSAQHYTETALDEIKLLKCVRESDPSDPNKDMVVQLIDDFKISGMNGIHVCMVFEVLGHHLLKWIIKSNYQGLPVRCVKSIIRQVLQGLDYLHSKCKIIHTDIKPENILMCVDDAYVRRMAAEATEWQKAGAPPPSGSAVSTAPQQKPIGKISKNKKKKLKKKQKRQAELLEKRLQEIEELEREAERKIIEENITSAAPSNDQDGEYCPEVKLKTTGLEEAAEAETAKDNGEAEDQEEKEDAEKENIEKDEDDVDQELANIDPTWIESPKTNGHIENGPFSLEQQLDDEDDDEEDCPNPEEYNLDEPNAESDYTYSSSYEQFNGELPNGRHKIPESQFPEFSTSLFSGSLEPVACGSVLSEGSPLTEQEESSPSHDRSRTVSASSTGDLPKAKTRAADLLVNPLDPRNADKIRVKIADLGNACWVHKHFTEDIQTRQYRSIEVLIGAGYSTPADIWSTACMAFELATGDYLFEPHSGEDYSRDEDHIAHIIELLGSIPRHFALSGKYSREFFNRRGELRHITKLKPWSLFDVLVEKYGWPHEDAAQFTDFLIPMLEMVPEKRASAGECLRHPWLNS
Chain of BDNF/NT-3 growth factors receptor (Homo sapiens) (Q16620 32-822 limits assumed): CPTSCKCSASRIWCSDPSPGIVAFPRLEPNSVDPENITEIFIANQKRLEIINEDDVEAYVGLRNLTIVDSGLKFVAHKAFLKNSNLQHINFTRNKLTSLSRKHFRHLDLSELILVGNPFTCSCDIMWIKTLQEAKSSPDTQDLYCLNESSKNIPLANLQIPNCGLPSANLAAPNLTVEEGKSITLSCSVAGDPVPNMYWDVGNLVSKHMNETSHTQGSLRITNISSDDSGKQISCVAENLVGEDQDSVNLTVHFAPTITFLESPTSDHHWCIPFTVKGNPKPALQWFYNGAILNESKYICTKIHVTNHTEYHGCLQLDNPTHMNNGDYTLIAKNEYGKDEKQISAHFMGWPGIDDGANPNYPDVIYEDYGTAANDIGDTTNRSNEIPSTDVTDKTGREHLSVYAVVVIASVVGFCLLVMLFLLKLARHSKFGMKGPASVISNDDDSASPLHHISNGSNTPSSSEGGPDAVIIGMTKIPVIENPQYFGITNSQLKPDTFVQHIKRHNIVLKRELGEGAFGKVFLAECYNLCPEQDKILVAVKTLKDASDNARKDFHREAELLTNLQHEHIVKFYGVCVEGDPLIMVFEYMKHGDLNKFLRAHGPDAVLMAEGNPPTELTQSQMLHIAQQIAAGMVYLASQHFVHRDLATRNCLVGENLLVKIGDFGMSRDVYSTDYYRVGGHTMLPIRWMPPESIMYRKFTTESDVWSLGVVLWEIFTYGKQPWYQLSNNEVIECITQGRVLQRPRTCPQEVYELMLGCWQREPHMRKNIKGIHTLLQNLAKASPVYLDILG

Structure (SMILES): COc1ccc2c(c1)C(=O)c1sc3ccc(OC)cc3c1-2
- t1/2 [1]: 18.9 min
- CLH [2]: 122 µL/min/mg
- Activity ([3]; INHIBITOR): < 5%

Structure (SMILES): COc1cccc2c1C(=O)c1sc3ccc(O)cc3c1-2
- Activity [3]: 78%

Structure (SMILES): COc1ccc2sc3c(c2c1)-c1c(OC)cccc1C3=O
- t1/2 [1]: < 5 min
- CLH [2]: > 500 µL/min/mg
- Activity [3]: 68%

Structure (SMILES): COc1ccc2c(c1)-c1c(sc3ccc(OC)cc13)C2=O
- CLH [2]: 92.4 µL/min/mg
- Activity ([3]; INHIBITOR): < 5%

Structure (SMILES): COc1cccc2c1C(=O)c1sc3ccccc3c1-2
- t1/2 [1]: < 5 min
- CLH [2]: > 500 µL/min/mg
- Activity ([3]; INHIBITOR): < 5%

Structure (SMILES): COc1cccc2c1-c1c(sc3ccccc13)C2=O
- t1/2 [1]: 6.5 min
- CLH [2]: 355.5 µL/min/mg
- Activity ([3]; INHIBITOR): < 5%

Now from value to molecule:

- IC50 (U-87 MG): > 100000 nM
- Activity ([3]; INHIBITOR): < 5%
- IC50 (cells): > 100000 nM
Structure (SMILES): O=C1c2ccccc2-c2c1sc1ccc(O)cc21

- t1/2 [1]: 33.7 min
- CLH [2]: 68.8 µL/min/mg
- Activity ([3]; INHIBITOR): < 5%
Structure (SMILES): COc1ccc2c(c1)-c1c(sc3ccccc13)C2=O

- t1/2 [1]: 16.8 min
- CLH [2]: 93.9 µL/min/mg
- Activity [3]: 78%
- Activity ([3]; INHIBITOR): < 5%
Structure (SMILES): COc1ccc2c(c1)C(=O)c1sc3ccc(F)cc3c1-2

- inhibition [4]: 0%
- inhibition [5]: 42%
- inhibition [6]: 57%
- IC50 [7]: 76 nM
- inhibition [8]: 91%
- inhibition [9]: 0%
- inhibition [10]: 16%
- inhibition [11]: 93%
- IC50 [12]: 26 nM
- inhibition [13]: 66%
- inhibition [14]: 6%
- IC50 [15]: 14 nM
- IC50 [16]: 28 nM
- inhibition [17]: 15%
- inhibition [18]: 7%
- inhibition [19]: 95%
- inhibition [20]: 47%
- inhibition [21]: 8%
- inhibition [22]: 0%
- inhibition [23]: 0%
- IC50 (U-87 MG): 45900 nM
- inhibition [24]: 95%
- inhibition [25]: 8%
- inhibition [26]: 88%
- Activity [3]: 93%
- inhibition [27]: 0%
- inhibition [28]: 5%
Structure (SMILES): COc1ccc2c(c1)C(=O)c1sc3ccc(O)cc3c1-2

- metabolised [29]: 50%
- Activity [3]: 89%
Structure (SMILES): COc1ccc2c(c1)-c1c(sc3ccc(O)cc13)C2=O

- t1/2 [1]: 24.4 min
- CLH [2]: 94.8 µL/min/mg
- Activity ([3]; INHIBITOR): < 5%
Structure (SMILES): COc1ccc2c(c1)C(=O)c1sc3ccccc3c1-2

- Activity ([3]; INHIBITOR): 7%
Structure (SMILES): COc1ccc2sc3c(c2c1)-c1ccccc1C3=O
